pIC50: −log10 of the molar value.
System: 192522-019-R-J2-PDC complex tumor spheroid viability
Experiment: Anticancer human tumor 192522-019-R-J2-PDC patient-derived colon adenocarcinoma cell line growth inhibition [POLQ]
Details: for pIC50: curve of first compound; for viability, T/C: stronger effect = lower value
Procedure, shortened: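 Complex spheroid viability model combining PDC tumour cells with endothelial (HUVEC) and MSC stromal cells. Novobiocin, ART-558 or RP6685 were tested singly and in combination with standard and investigational anticancer drugs. Each was titrated in half-log steps from near clinical Cmax, or from 10 microM where Cmax was unknown.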

[1] = second compound 0.0316 µM, first compound 0.0316 µM
[2] = second compound 0.0316 µM, first compound 0.1 µM
[3] = second compound 0.0316 µM, first compound 0.316 µM
[4] = second compound 0.0316 µM, first compound 1 µM
[5] = second compound 0.0316 µM, first compound 3.16 µM
[6] = second compound 0.0316 µM, first compound 10 µM
[7] = second compound 0.1 µM, first compound 0.0316 µM
[8] = second compound 0.1 µM, first compound 0.1 µM
[9] = second compound 0.1 µM, first compound 0.316 µM
[10] = second compound 0.1 µM, first compound 1 µM
[11] = second compound 0.1 µM, first compound 3.16 µM
[12] = second compound 0.1 µM, first compound 10 µM
[13] = second compound 0.316 µM, first compound 0.0316 µM
[14] = second compound 0.316 µM, first compound 0.1 µM
[15] = second compound 0.316 µM, first compound 0.316 µM
[16] = second compound 0.316 µM, first compound 1 µM
[17] = second compound 0.316 µM, first compound 3.16 µM
[18] = second compound 0.316 µM, first compound 10 µM
[19] = second compound 1 µM, first compound 0.0316 µM
[20] = second compound 1 µM, first compound 0.1 µM
[21] = second compound 1 µM, first compound 0.316 µM
[22] = second compound 1 µM, first compound 1 µM
[23] = second compound 1 µM, first compound 3.16 µM
[24] = second compound 1 µM, first compound 10 µM
[25] = second compound 3.16 µM, first compound 0.0316 µM
[26] = second compound 3.16 µM, first compound 0.1 µM
[27] = second compound 3.16 µM, first compound 0.316 µM
[28] = second compound 3.16 µM, first compound 1 µM
[29] = second compound 3.16 µM, first compound 3.16 µM
[30] = second compound 3.16 µM, first compound 10 µM
[31] = second compound 10 µM, first compound 0.0316 µM
[32] = second compound 10 µM, first compound 0.1 µM
[33] = second compound 10 µM, first compound 0.316 µM
[34] = second compound 10 µM, first compound 1 µM
[35] = second compound 10 µM, first compound 3.16 µM
[36] = second compound 10 µM, first compound 10 µM
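Further: spheroids exposed to drugs for seven days before reading.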
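Wherever viability, T/C is given: 100% = DMSO vehicle control viability in luminescence.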

Work on `O=c1[nH]cc(F)c(=O)[nH]1` + Nc1ccc(C#CCN(C(=O)Cc2ncc(C(F)(F)F)cc2C(F)(F)F)c2ccc(F)cc2)nn1 yielded a pIC50 (second compound 0.0316 µM) of less than 5.00, a pIC50 (second compound 0.1 µM) of less than 5.00 and a pIC50 (second compound 0.316 µM) of less than 5.00. It also gave a pIC50 (second compound 1 µM) of less than 5.00, a pIC50 (second compound 3.16 µM) of less than 5.00 and a pIC50 (second compound 10 µM) of less than 5.00. It also gave a viability, T/C [1] of 99.2%, a viability, T/C [2] of 98.4% and a viability, T/C [3] of 92.5%. For the same compound, the viability, T/C [4] was 90.4%, the viability, T/C [5] was 96.4% and the viability, T/C [6] was 90.3%. It also gave a viability, T/C [7] of 104%, a viability, T/C [8] of 101% and a viability, T/C [9] of 95%. The viability, T/C [10] was 95.9%, the viability, T/C [11] was 91.2% and the viability, T/C [12] was 85.6%. It also gave a viability, T/C [13] of 104%, a viability, T/C [14] of 93.5% and a viability, T/C [15] of 96.4%. It also gave a viability, T/C [16] of 85.3%, a viability, T/C [17] of 88.2% and a viability, T/C [18] of 96.4%. It also gave a viability, T/C [19] of 104%, a viability, T/C [20] of 98.1% and a viability, T/C [21] of 98.5%. It also gave a viability, T/C [22] of 92.2%, a viability, T/C [23] of 96% and a viability, T/C [24] of 89.2%. The viability, T/C [25] was 102%, the viability, T/C [26] was 98.9% and the viability, T/C [27] was 92.8%. It also gave a viability, T/C [28] of 96.6%, a viability, T/C [29] of 95.8% and a viability, T/C [30] of 90.1%. For the same compound, the viability, T/C [31] was 116%, the viability, T/C [32] was 95.1% and the viability, T/C [33] was 91.1%. The viability, T/C [34] was 85.9%, the viability, T/C [35] was 93.5% and the viability, T/C [36] was 90.5%.
With `C#Cc1c(F)ccc2cc(O)cc(-c3ncc4c(N5CC6CCC(C5)N6)nc(OCC56CCCN5CC(F)C6)nc4c3F)c12` (centres undefined) + COC1C(OC(N)=O)C(O)C(Oc2ccc3c(O)c(NC(=O)c4ccc(O)c(CC=C(C)C)c4)c(=O)oc3c2C)OC1(C)C the pIC50 (second compound 0.0316 µM) was less than 5.00, the pIC50 (second compound 0.1 µM) was less than 5.00 and the pIC50 (second compound 0.316 µM) was less than 5.00. For the same compound, the pIC50 (second compound 1 µM) was less than 5.00, the pIC50 (second compound 3.16 µM) was less than 5.00 and the pIC50 (second compound 10 µM) was less than 5.00. It also gave a viability, T/C [1] of 97.7%, a viability, T/C [2] of 78.8% and a viability, T/C [3] of 81.6%. For the same compound, the viability, T/C [4] was 76.1%, the viability, T/C [5] was 73.4% and the viability, T/C [6] was 68%. For the same compound, the viability, T/C [7] was 98%, the viability, T/C [8] was 83.9% and the viability, T/C [9] was 86.5%. It also gave a viability, T/C [10] of 73.3%, a viability, T/C [11] of 70.2% and a viability, T/C [12] of 72.1%. It also gave a viability, T/C [13] of 98.7%, a viability, T/C [14] of 88.4% and a viability, T/C [15] of 82.9%. The viability, T/C [16] was 77.5%, the viability, T/C [17] was 78.9% and the viability, T/C [18] was 72.1%. It also gave a viability, T/C [19] of 94.8%, a viability, T/C [20] of 86.7% and a viability, T/C [21] of 80.1%. It also gave a viability, T/C [22] of 76.8%, a viability, T/C [23] of 73.2% and a viability, T/C [24] of 70.7%. The viability, T/C [25] was 95.1%, the viability, T/C [26] was 90.2% and the viability, T/C [27] was 82.3%. For the same compound, the viability, T/C [28] was 73.2%, the viability, T/C [29] was 75.9% and the viability, T/C [30] was 71.7%. It also gave a viability, T/C [31] of 95.2%, a viability, T/C [32] of 84.1% and a viability, T/C [33] of 79.6%. For the same compound, the viability, T/C [34] was 78.7%, the viability, T/C [35] was 74% and the viability, T/C [36] was 62.8%.
